Results on six molecules are retold here after ChEMBL document CHEMBL1153463 (Bioorg Med Chem Lett, 2009).

As a reminder, the pEC50 is the EC50 on a negative log10 scale, so that one unit is a factor of ten. The term half-life denotes the time needed for the level to fall by half in the phase considered. Low readings indicate rapid decline, high ones slow decline. Broadly, the Papp is the rate of passage across a membrane or cell layer, normalised by area and donor concentration. As a reminder, the Vd is a proportionality between amount in the body and measured concentration, not a real space. The low end stands for confinement near the circulation, the high end for extensive tissue distribution. Broadly, the bioavailability is dose-corrected exposure relative to a reference, in per cent. Lower therefore signals poor availability. By Cmax is commonly meant the maximum level reached in the sampled fluid or tissue. Broadly, the clearance is the volume of plasma or blood freed of the substance per unit of time.

Data set [1] relates to Respiratory syncytial virus. The data set is described as follows: Antiviral activity against RSV assessed as inhibition of viral replication by cell based assay. In kind it is functional, organism-based. The note with it: human respiratory syncytial virus.
Data set [2] can be described thus: Metabolic stability in human liver mocrosomes. The note with it: liver microsomes. (Liver microsomes are a subcellular fraction often used to study metabolism.)
Data set [3] in a line: Permeability across human Caco-2 cells. On the technique in general: Caco-2 monolayers are a common model of the intestinal barrier.
Data set [4] deals with Respiratory syncytial virus. Briefly: Antiviral activity against RSV infected in BALB/c mouse assessed as log reduction in viral titer. In kind it is functional.
A short description of data set [5]: Volume of distribution at steady state in rat at 1 mg/kg, iv. The note with it: in vivo.
The subject of data set [6] is Respiratory syncytial virus. The data set is described as follows: Antiviral activity against RSV infected in BALB/c mouse assessed as reduction viral replication by RT-PCR. In kind it is functional.
Data set [7] in a line: in vivo. Particulars: rat, po, 5 mg/kg.
Data set [8] is described as follows: in vivo. The note with it: rat, po, 5 mg/kg. The source holds these as a separate data set.
A short description of data set [9]: in vivo. The note with it: rat, iv, 1 mg/kg.
Data set [10] can be described thus: in vivo. Particulars: rat, iv, 1 mg/kg. The source holds these as a separate data set.

SMILES strings stand for the structures. pEC50: −log10 of the molar value.

`CS(=O)(=O)CCCn1c(CN2C(=O)/C(=N/OCc3ccccn3)c3ccncc32)nc2ccccc21`: the negative logarithm of the EC50 (pEC50) in data set [1] is 7.54. The half-life in data set [2] was determined as 21 min. Also, the Papp in data set [3] was 1.6 ×10⁻⁶ cm/s.
The like results for `CS(=O)(=O)c1ccc(CO/N=C2/C(=O)N(Cc3nc4ccccc4n3CCCCO)c3ncccc32)cc1` were, in that order, 8.14, 5.3 min and 7.1 ×10⁻⁶ cm/s.
For `O=C1/C(=N/OCCF)c2ccncc2N1Cc1nc2ccccc2n1CCCCO`, in data set [1], the pEC50 is 7.27. The molecule also registered a half-life in data set [2] of 100 min. Besides, the Papp in data set [3] stood at 5.3 ×10⁻⁶ cm/s. In addition, the deltaTCID50 in data set [4] amounted to 0.68.
As to `N#CCCCn1c(CN2C(=O)/C(=N/OCC(F)(F)F)c3cccnc32)nc2ccccc21`, in data set [1], the pEC50 was 6.95. In data set [2], this molecule gave a half-life of 48 min. In data set [3], this molecule came in with a Papp of 18 ×10⁻⁶ cm/s.
In the case of `O=C1/C(=N/OCCF)c2cccnc2N1Cc1nc2ccccc2n1CCCCO`, the pEC50 in [1] is 7.37. The half-life in data set [2] is 44 min. In [3], this molecule had a Papp of 11.5 ×10⁻⁶ cm/s. For the same molecule, in [4], the deltaTCID50 turned out to be 0.62.
Take `CS(=O)(=O)CCCn1c(CN2C(=O)/C(=N/OCCF)c3cccnc32)nc2ccccc21`: the pEC50 in [1] is 7.53. Also, the half-life in [2] is more than 100 min; in data set [10], 12 min. In data set [3], this molecule yielded a Papp of 18.2 ×10⁻⁶ cm/s. The same molecule had a Vd in [5] of 1.8 L/kg. The deltaTCID50 in data set [4] was 1.05. Besides, the Ratio in data set [6] turned out to be 45. In addition, the bioavailability in data set [7] turned out to be 14%. Further, the highest level in data set [8] (Cmax) was 14 ng/mL. In addition, the clearance in [9] worked out at 130 mL/min/kg.
